According to the supplement of paper PMC10307832:

Experiments:
Assay in all cases: relative viability (nuclei count vs DMSO), 5 days (fraction); higher = more cells survive
[1] = test system: 201T
Summary of the method: (§1)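 Medians of duplicate plates are given as relative viability. That measure is the nuclei count in treated wells divided by the count in vehicle wells. Counts were taken on 4× images of lung cancer cell lines in 1536-well plates, 5 days after pin-tool dosing the day after seeding with one drug alone or a fixed anchor-drug dose plus five library-drug doses (not always all listed) in √10 steps.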

[2] = test system: A-427
Summary of the method: as §1

[3] = test system: ABC-1
Summary of the method: as §1

[4] = test system: BEN
Summary of the method: as §1

[5] = test system: CAL-12T
Summary of the method: as §1

[6] = test system: H3255
Summary of the method: as §1

[7] = test system: LC-2-ad
Summary of the method: as §1

[8] = test system: LCLC-97TM1
Summary of the method: as §1

[9] = test system: NCI-H1650
Summary of the method: as §1

[10] = test system: NCI-H1651
Summary of the method: as §1

[11] = test system: NCI-H1915
Summary of the method: as §1

[12] = test system: NCI-H1944
Summary of the method: as §1

[13] = test system: NCI-H2023
Summary of the method: as §1

[14] = test system: NCI-H2087
Summary of the method: as §1

[15] = test system: NCI-H441
Summary of the method: as §1

[16] = test system: NCI-H460
Summary of the method: as §1

[17] = test system: NCI-H520
Summary of the method: as §1

[18] = test system: NCI-H596
Summary of the method: as §1

[19] = test system: NCI-H650
Summary of the method: as §1

[20] = test system: NCI-H661
Summary of the method: as §1

[21] = test system: NCI-H727
Summary of the method: as §1

[22] = test system: PC-3 [JPC-3]
Summary of the method: as §1

## O=c1cc(-c2cccc3c2Sc2ccccc2S3)oc(N2CCOCC2)c1 + Cc1nc(Nc2ncc(C(=O)Nc3c(C)cccc3Cl)s2)cc(N2CCN(CCO)CC2)n1 [Dasatinib] (partner 0.075 µM)
[1]; first compound 0.08 µM
  relative viability: 0.637
[1]; first compound 0.253 µM
  relative viability: 0.599
[1]; first compound 0.8 µM
  relative viability: 0.355
[1]; first compound 2.53 µM
  relative viability: 0.521
[1]; first compound 8 µM
  relative viability: 0.654
[2]; first compound 0.08 µM
  relative viability: 0.695
[2]; first compound 0.253 µM
  relative viability: 0.871
[2]; first compound 0.8 µM
  relative viability: 0.744
[2]; first compound 8 µM
  relative viability: 0.884
[3]; first compound 0.08 µM
  relative viability: 0.604
[3]; first compound 0.253 µM
  relative viability: 0.651
[3]; first compound 0.8 µM
  relative viability: 0.531
[3]; first compound 2.53 µM
  relative viability: 0.492
[3]; first compound 8 µM
  relative viability: 0.653
[4]; first compound 0.08 µM
  relative viability: 0.284
[4]; first compound 0.253 µM
  relative viability: 0.353
[4]; first compound 0.8 µM
  relative viability: 0.284
[4]; first compound 2.53 µM
  relative viability: 0.318
[4]; first compound 8 µM
  relative viability: 0.351
[5]; first compound 0.08 µM
  relative viability: 0.339
[5]; first compound 0.253 µM
  relative viability: 0.415
[5]; first compound 0.8 µM
  relative viability: 0.298
[5]; first compound 2.53 µM
  relative viability: 0.34
[5]; first compound 8 µM
  relative viability: 0.27
[6]; first compound 0.08 µM
  relative viability: 0.334
[6]; first compound 0.253 µM
  relative viability: 0.288
[6]; first compound 0.8 µM
  relative viability: 0.363
[6]; first compound 2.53 µM
  relative viability: 0.342
[6]; first compound 8 µM
  relative viability: 0.556
[7]; first compound 0.08 µM
  relative viability: 0.648
[7]; first compound 0.253 µM
  relative viability: 0.584
[7]; first compound 0.8 µM
  relative viability: 0.532
[7]; first compound 2.53 µM
  relative viability: 0.405
[7]; first compound 8 µM
  relative viability: 0.461
[8]; first compound 0.08 µM
  relative viability: 0.899
[8]; first compound 0.253 µM
  relative viability: 0.863
[8]; first compound 0.8 µM
  relative viability: 0.956
[8]; first compound 2.53 µM
  relative viability: 0.749
[8]; first compound 8 µM
  relative viability: 0.757
[9]; first compound 0.08 µM
  relative viability: 0.327
[9]; first compound 0.253 µM
  relative viability: 0.339
[9]; first compound 0.8 µM
  relative viability: 0.259
[9]; first compound 2.53 µM
  relative viability: 0.241
[9]; first compound 8 µM
  relative viability: 0.267
[10]; first compound 0.08 µM
  relative viability: 0.401
[10]; first compound 0.253 µM
  relative viability: 0.457
[10]; first compound 0.8 µM
  relative viability: 0.392
[10]; first compound 2.53 µM
  relative viability: 0.312
[10]; first compound 8 µM
  relative viability: 0.387
[11]; first compound 0.08 µM
  relative viability: 0.296
[11]; first compound 0.253 µM
  relative viability: 0.351
[11]; first compound 0.8 µM
  relative viability: 0.309
[11]; first compound 2.53 µM
  relative viability: 0.306
[11]; first compound 8 µM
  relative viability: 0.337
[12]; first compound 0.08 µM
  relative viability: 0.21
[12]; first compound 0.253 µM
  relative viability: 0.223
[12]; first compound 0.8 µM
  relative viability: 0.207
[12]; first compound 2.53 µM
  relative viability: 0.176
[12]; first compound 8 µM
  relative viability: 0.24
[13]; first compound 0.08 µM
  relative viability: 0.537
[13]; first compound 0.253 µM
  relative viability: 0.679
[13]; first compound 0.8 µM
  relative viability: 0.498
[13]; first compound 2.53 µM
  relative viability: 0.48
[13]; first compound 8 µM
  relative viability: 0.405
[14]; first compound 0.08 µM
  relative viability: 0.787
[14]; first compound 0.253 µM
  relative viability: 0.936
[14]; first compound 0.8 µM
  relative viability: 0.943
[14]; first compound 2.53 µM
  relative viability: 0.919
[14]; first compound 8 µM
  relative viability: 0.699
[15]; first compound 0.08 µM
  relative viability: 0.599
[15]; first compound 0.253 µM
  relative viability: 0.586
[15]; first compound 0.8 µM
  relative viability: 0.7
[15]; first compound 2.53 µM
  relative viability: 0.502
[15]; first compound 8 µM
  relative viability: 0.658
[16]; first compound 0.08 µM
  relative viability: 0.454
[16]; first compound 0.253 µM
  relative viability: 0.619
[16]; first compound 0.8 µM
  relative viability: 0.436
[16]; first compound 2.53 µM
  relative viability: 0.408
[16]; first compound 8 µM
  relative viability: 0.55
[17]; first compound 0.08 µM
  relative viability: 0.181
[17]; first compound 0.253 µM
  relative viability: 0.258
[17]; first compound 0.8 µM
  relative viability: 0.194
[17]; first compound 2.53 µM
  relative viability: 0.172
[17]; first compound 8 µM
  relative viability: 0.213
[18]; first compound 0.08 µM
  relative viability: 0.662
[18]; first compound 0.253 µM
  relative viability: 0.636
[18]; first compound 0.8 µM
  relative viability: 0.541
[18]; first compound 2.53 µM
  relative viability: 0.504
[18]; first compound 8 µM
  relative viability: 0.594
[19]; first compound 0.08 µM
  relative viability: 0.4
[19]; first compound 0.253 µM
  relative viability: 0.412
[19]; first compound 0.8 µM
  relative viability: 0.506
[19]; first compound 8 µM
  relative viability: 0.488
[20]; first compound 0.08 µM
  relative viability: 0.779
[20]; first compound 0.253 µM
  relative viability: 0.938
[20]; first compound 0.8 µM
  relative viability: 0.761
[20]; first compound 2.53 µM
  relative viability: 0.729
[20]; first compound 8 µM
  relative viability: 0.874
[21]; first compound 0.08 µM
  relative viability: 0.332
[21]; first compound 0.253 µM
  relative viability: 0.438
[21]; first compound 0.8 µM
  relative viability: 0.449
[21]; first compound 2.53 µM
  relative viability: 0.382
[21]; first compound 8 µM
  relative viability: 0.409
[22]; first compound 0.08 µM
  relative viability: 1
[22]; first compound 0.253 µM
  relative viability: 0.949
[22]; first compound 0.8 µM
  relative viability: 1.07
[22]; first compound 2.53 µM
  relative viability: 0.828
[22]; first compound 8 µM
  relative viability: 1.05
